Entries after “also recorded” stand apart in the source; their conditions may differ. Like-named read-outs stand apart in the source and are kept apart here.
Experiments:
[1] = tested on: Normal Human Epidermal Keratinocytes (NHEK); assay: Cellular in vitro hyaluronan assay on normal human epidermal keratinocytes (hyaluronic acid ELISA); format: cell-based; details: for Mean hyaluron stimulation vs. control: 16 h; for Mean hyaluronan stimulation, fold less than that of the positive control retinol: compounds at 0.25 μM versus retinol at 0.1 μM; for Effect on hyaluronan production of epidermal keratinocytes (in words): in vitro
Protocol: NHEK are seeded into a 24 well plate at a concentration of 2.5×10^4 cells/well. Cells are incubated at 37° C. and 5% CO2 in keratinocyte medium until they are 70-80% confluent. Then the medium is withdrawn, cells are washed with PBS and the test compounds dissolved in keratinocyte medium are added. After incubation for 16 h in the presence of the test compounds, the culture medium is collected and hyaluronan is determined by a hyaluronic acid ELISA detection kit (Corgenix) which is performed according to the supplier instructions. The stimulation of the hyaluronan biosynthesis in the presence of the test compounds is calculated according to the following equation: Hyaluronan stimulation [%]=([…]×100)−100 with • HAcontrol=hyaluronan content in ng/ml of the medium from cells treated with control • HAtest compound=hyaluronan content in ng/ml of the medium from cells treated with test compound

[2] = tested on: Normal Human Dermal Fibroblasts (NHDF); assay: Cellular in vitro hyaluronan assay on normal human dermal fibroblasts (hyaluronic acid ELISA); format: cell-based; details: for Mean hyaluron stimulation vs. control: 16 h; for Mean hyaluronan stimulation compared with positive control TGF-b1: cassione 0.25 μM, [6]-paradol 0.025 μM versus TGF-b1 1 ng/ml; for Effect on hyaluronan production of dermal fibroblasts (in words): in vitro
Protocol: NHDF are seeded into a 24 well plate at a concentration of 1.5×10^4 cells/well. Cells are incubated at 37° C. and 5% CO2 in fibroblast medium containing 10% fetal bovine serum (FBS) until they are 70-80% confluent. Then the medium is withdrawn, cells are washed with PBS and the test compounds dissolved in fibroblast medium without FBS are added. After incubation for 16 h in the presence of the test compounds, the culture medium is collected and hyaluronan is determined by a hyaluronic acid ELISA detection kit (Corgenix) which is performed according to the supplier instructions. The stimulation of the hyaluronan biosynthesis in the presence of the test compounds is calculated according to the following equation: Hyaluronan stimulation [%]=([…]×100)−100 with • HAcontrol=hyaluronan content in ng/ml of the medium from cells treated with control • HAtest compound=hyaluronan content in ng/ml of the medium from cells treated with test compound

B16 melanoma cell line = details: cited from earlier work
ex vivo human skin = assay: Hyaluronan assay on ex vivo human skin (Alcain blue staining, image analysis); format: cell-based
Source text: Human skin obtained from plastic surgery is cut into pieces of approximately 7×3 mm (diameter×thickness). 6 skin samples are used for each treatment. The skin samples are placed on a cotton pad soaked with culture medium (modified Williams'E medium). Control and hydrodispersion gels (as described in more detail below) without (=placebo) and with the test compound, respectively, are applied topically on day 0 and the application is renewed on day 1. On day 2, skin samples are fixed, histological sections are prepared and subsequent histochemically stained by Alcain blue. After that, pictures are taken from each section and dermal and epidermal hyaluronan is quantified by image analysis of a selected region of interest. To do so, the histochemical staining is divided in three different color channels with an algorithm specific for Alcain blue staining and the distribution and intensity of the blue colour channel which is specific for hyaluronan is analysed. Hyaluronan stimulation [%]=([…]×100)−100 with • HAcontrol=hyaluronan score of the skin sample treated with control • HAtest compound=hyaluron score of the skin sample treated with test compound
The hydrodispersion gels used had the composition as set out in Table 4: […]

[3] = listed as compound of formula IV
[4] = 0.0001% [6]-paradol containing gel versus placebo gel
[5] = 0.0001 % in hydrodispersion gel, topical on day 0 and day 1, analysed day 2

Q: With `CC1=C(/C=C/C(C)=C/C=C/C(C)=C/C(=O)O)C(C)(C)CCC1` [Retinoic acid, reference compound] as the molecule, how does the “Mean hyaluron stimulation vs. control” value ([1]; test concentration 0.1 μM) read?
A: Its value is 116.1 ± 37.3%.

Q: What about the “Mean hyaluron stimulation vs. control” value ([2]; test concentration 0.1 μM) of the same molecule?
A: The value was −13.0 ± 18.0%.

Q: Which “inhibition (skin lightening, in vitro efficacy)” value (B16 melanoma cell line; 26 μM (5 μg/ml)) does the source give for `CC(=O)CCc1ccc2c(c1)OCO2` [Cassione, 4-(3,4-methylendioxyphenyl)-2-butanone] here?
A: The value was 15%.

Q: And the “inhibition (skin lightening, in vitro efficacy)” value (B16 melanoma cell line; 520 μM (100 μg/ml))?
A: The value was 87%.

Q: What about the “Mean hyaluronan stimulation, fold less than that of the positive control retinol” value [1] of the same molecule?
A: The value was 1.9 fold.

Q: What about the “Effect on hyaluronan production of epidermal keratinocytes (in words)” value [1] of the same molecule?
A: Its value is “enhance the hyaluronan production; also recorded: potently enhance”.

Q: What about the “Mean hyaluron stimulation vs. control” value ([1]; test concentration 0.25 μM) of the same molecule?
A: The value was 37.0 ± 8.0%.

Q: And the “Mean hyaluronan stimulation compared with positive control TGF-b1” value [2]?
A: Its value is “comparable”.

Q: And the “Effect on hyaluronan production of dermal fibroblasts (in words)” value (from here on “Effect … of dermal fibroblasts (in words)”) [2]?
A: Its value is “enhance the hyaluronan production; also recorded: potently enhance”.

Q: What about the “Mean hyaluron stimulation vs. control” value ([2]; test concentration 0.25 μM) of the same molecule?
A: The value was 41.0 ± 6.0%.

Q: Which “Mean hyaluron stimulation vs. control” value ([1]; test concentration 0.1 μM) does the source give for `CC1=C(/C=C/C(C)=C/C=C/C(C)=C/CO)C(C)(C)CCC1` [Retinol, reference compound] here?
A: Its value is 70.8 ± 33.3%.

Q: And the “Effect … of dermal fibroblasts (in words)” value [2]?
A: The value was “no stimulatory activity”.

Q: And the “Mean hyaluron stimulation vs. control” value ([2]; test concentration 0.1 μM)?
A: The value was 2.0%.

Q: Which results are given for `COc1cc(CCC(=O)c2ccc(O)cc2)ccc1O` [Compound of formula IV, 3-(4-Hydroxy-3-methoxyphenyl)-1-(4-hydroxyphenyl)-1-propanone]?
A: Mean hyaluronan stimulation, fold less than that of the positive control retinol [1]: 1.4 fold; Effect on hyaluronan production of epidermal keratinocytes (in words) [1, 3]: enhance the hyaluronan production; Effect on hyaluronan production of epidermal keratinocytes (in words) ([1]; listed as formula IV): powerfully upregulates HA synthesis; Mean hyaluron stimulation vs. control ([1]; test concentration 0.25 μM): 50.5 ± 26.5%; Effect on hyaluronan production of dermal fibroblasts (in words) [2, 3]: no stimulatory activity; Effect on hyaluronan production of dermal fibroblasts (in words) ([2]; listed as formula IV): no direct stimulating effect on dermal fibroblasts; Mean hyaluron stimulation vs. control ([2]; test concentration 0.25 μM): −5.5 ± 2.5%

Q: For `COc1cc(CCC(C)=O)ccc1O` [Zingerone, 4-(4-hydroxy-3-methoxyphenyl)-2-butanone], which “Mean hyaluronan stimulation, fold less than that of the positive control retinol” value [1] is on record?
A: The value was 1.6 fold.

Q: And the “Effect on hyaluronan production of epidermal keratinocytes (in words)” value [1]?
A: Its value is “enhance the hyaluronan production; also recorded: more pronounced effect on epidermal keratinocytes”.

Q: And the “Mean hyaluron stimulation vs. control” value ([1]; test concentration 0.25 μM)?
A: Its value is 45.0 ± 24.7%.

Q: What about the “Effect … of dermal fibroblasts (in words)” value [2] of the same molecule?
A: Its value is “enhance the hyaluronan production; also recorded: increases HA biosynthesis”.

Q: And the “Mean hyaluron stimulation vs. control” value ([2]; test concentration 0.25 μM)?
A: Its value is 15.0 ± 5.3%.

Q: What does the source list for “TGF-b1: Transforming growth factor (TGF)-beta1, positive control known to increase HA synthesis in dermal fibroblasts”?
A: Effect on hyaluronan production of epidermal keratinocytes (in words) [1]: no stimulatory activity; Mean hyaluron stimulation vs. control ([1]; test concentration 1 ng/ml): −31.0%; Mean hyaluron stimulation vs. control ([2]; test concentration 1 ng/ml): 39.7 ± 13.9%

Q: What does the source list for `CCCCCCCC(=O)CCc1ccc(O)c(OC)c1` [[6]-Paradol, Heptyl 4-hydroxy-3-methoxyphenethyl ketone]?
A: Effect on hyaluronan production of epidermal keratinocytes (in words) [1]: no stimulatory activity; also recorded: without any direct stimulating effect on epidermal keratinocytes; Mean hyaluron stimulation vs. control ([1]; test concentration 0.025 μM): −3.0 ± 3.0%; Mean HA stimulation versus placebo, dermal HA (ex vivo human skin; [4]): 250%; Mean HA stimulation versus placebo, epidermal HA (ex vivo human skin; [4]): 124%; Mean hyaluronan stimulation vs. control [%] Dermal (ex vivo human skin; [5]): 124%; Mean hyaluronan stimulation vs. control [%] Epidermal (ex vivo human skin; [5]): 51%; Effect on dermal and epidermal hyaluronan level of ex vivo human skin (in words) (ex vivo human skin; 0.0001%, 2 days of topical treatment): significantly stimulates; Mean hyaluronan stimulation compared with positive control TGF-b1 [2]: comparable; Effect on hyaluronan production of dermal fibroblasts (in words) [2]: enhance the hyaluronan production; also recorded: potently stimulates; Mean hyaluron stimulation vs. control ([2]; test concentration 0.025 μM): 38.0 ± 9.0%
